Reference: patent US9259452B2, “Deacetylase inhibitor therapy” (Celgene Corporation, priority 2006, dated 2016)

Assay: ECG evaluation of T-wave (grade 1) and ST segment (grade 2) abnormalities, phase II trial of romidepsin in T-cell lymphoma patients
Type: in vivo, human
Conditions: for ECGs Grade 0 (no T-wave/ST segment abnormality) / ECGs Grade 1 (T-wave abnormality) / ECGs Grade 2 (ST segment depression): all doses, n = 42 patients
Description: The protocol (NCI 01-C-0049 or 1312) and informed consent were approved by the Institutional Review Board of the National Cancer Institute. All data used in this analysis were obtained from patients who signed an informed consent and were enrolled and treated at the NIH Warren Grant Magnuson Clinical Center. Toxicities were reported using the National Cancer Institute Common Toxicity Criteria, CTC version 2.0. The Inclusion Criteria required measurable disease, an age of 18 years or older, an ECOG performance status of 0, 1 or 2, and a life expectancy of >12 wk. Required laboratory values included AGC≧1000/μL, platelets≧100,000/μL, bilirubin <1.5× the institutional upper limit of normal (ULN), AST <3×ULN, and creatinine <1.5×ULN. Patients with a myocardial infarction within the previous 6 months, a left ventricular ejection fraction (LVEF) below normal (<45% if performed by MUGA, or <50% if performed by echocardiogram or cardiac MRI), a corrected QT interval of >500 ms, unstable angina, or third degree heart block (unless with pacemaker) were not eligible to enroll.
Subsequently, the protocol was amended and all patients were treated on days 1, 8 and 15 of a 28 day cycle, with a starting dose of 14 mg/m^2. This change was made for improved patient tolerability. […] Provisions for dose reduction were made in the case of grade 3 or 4 toxicity. Alternatively, a dose increase was allowed for patients who had no serious toxicities.

[1] = Pre-treatment cycle 2 day 1 (n = 34), worst grade cycle 1: 1
[2] = Pre-treatment cycle 2 day 1 (n = 34), worst grade cycle 1: 2
[3] = Pre-treatment cycle 3 day 1 (n = 28), worst grade cycle 2: 1
[4] = Pre-treatment cycle 3 day 1 (n = 28), worst grade cycle 2: 2
[5] = Pre-treatment day 8 (n = 37), worst grade post-day 1 treatment 0
[6] = Pre-treatment day 8 (n = 37), worst grade post-day 1 treatment 1
[7] = Pre-treatment day 8 (n = 37), worst grade post-day 1 treatment 2
[8] = Pre-treatment day 15 (n = 36), worst grade post-day 8 treatment 0
[9] = Pre-treatment day 15 (n = 36), worst grade post-day 8 treatment 1
[10] = Pre-treatment day 15 (n = 36), worst grade post-day 8 treatment 2
[11] = Day after treatment, listed as depsipeptide
[12] = Immediate post infusion, listed as depsipeptide
[13] = Pre-treatment ECGs, listed as depsipeptide
[14] = any time during treatment, 37 patients on day 1, 8, 15 schedule
[15] = first dose of the first cycle (n = 42), Day 2
[16] = first dose of the first cycle (n = 42), Day 3
[17] = first dose of the first cycle (n = 42), Post infusion
[18] = first dose of the first cycle (n = 42), Pre (baseline)

C/C=C1\NC(=O)[C@H]2CSSCC/C=C/[C@H](CC(=O)N[C@H](C(C)C)C(=O)N2)OC(=O)[C@H](C(C)C)NC1=O [romidepsin, (1S,4S,10S,16E,21R)-7-[(2Z)-ethylidene]-4,21-diisopropyl-2-oxa-12,13-dithia-5,8,20,23-tetraazabicyclo[8.7.6]tricos-16-ene-3,6,9,19,22-pentanone]
Patients with worst ECG Grade 0 (All cycles, 42 patients): 2%
Patients with worst ECG Grade 1 (All cycles, 42 patients): 45%
Patients with worst ECG Grade 2 (All cycles, 42 patients): 52%
Patients with worst ECG Grade 0 (Cycle 1 only, 42 patients): 19%
Patients with worst ECG Grade 1 (Cycle 1 only, 42 patients): 57%
Patients with worst ECG Grade 2 (Cycle 1 only, 42 patients): 24%
Patients with ECG grade 0 at presentation for next cycle (Pre-treatment cycle 2 day 1 (n = 34), worst grade cycle 1: 0): 6
Patients with ECG grade 0 at presentation for next cycle [1]: 18
Patients with ECG grade 1 at presentation for next cycle [1]: 3
Patients with ECG grade 0 at presentation for next cycle [2]: 4
Patients with ECG grade 1 at presentation for next cycle [2]: 2
Patients with ECG grade 2 at presentation for next cycle [2]: 1
Patients with ECG grade 0 at presentation for next cycle (Pre-treatment cycle 3 day 1 (n = 28), worst grade cycle 2: 0): 2
Patients with ECG grade 0 at presentation for next cycle [3]: 16
Patients with ECG grade 1 at presentation for next cycle [3]: 1
Patients with ECG grade 0 at presentation for next cycle [4]: 7
Patients with ECG grade 1 at presentation for next cycle [4]: 2
Patients with ECG grade 0 at presentation for next cycle (Pre-treatment cycle 4 day 1 (n = 20), worst grade cycle 3: 1): 14
Patients with ECG grade 0 at presentation for next cycle (Pre-treatment cycle 4 day 1 (n = 20), worst grade cycle 3: 2): 6
Patients with ECG grade 0 at presentation for next dose [5]: 14
Patients with ECG grade 1 at presentation for next dose [5]: two
Patients with ECG grade 1 at presentation for next dose (Pre-treatment day 8 (n = 37), worst grade post-day 1 treatment 0, listed as depsipeptide): 2
Patients with ECG grade 0 at presentation for next dose [6]: nine
Patients with ECG grade 1 at presentation for next dose [6]: 8
Patients with ECG grade 2 at presentation for next dose [6]: 1
Patients with ECG grade 0 at presentation for next dose (Pre-treatment day 8 (n = 37), worst grade post-day 1 treatment 1, listed as depsipeptide): 9
Patients with ECG grade 0 at presentation for next dose [7]: two
Patients with ECG grade 1 at presentation for next dose [7]: 1
Patients with ECG grade 0 at presentation for next dose (Pre-treatment day 8 (n = 37), worst grade post-day 1 treatment 2, listed as depsipeptide): 2
Patients with ECG grade 0 at presentation for next dose [8]: 6
Patients with ECG grade 1 at presentation for next dose [8]: 3
Patients with ECG grade 0 at presentation for next dose [9]: 13
Patients with ECG grade 1 at presentation for next dose [9]: 10
Patients with ECG grade 0 at presentation for next dose [10]: 2
Patients with ECG grade 1 at presentation for next dose [10]: 1
Patients with ECG grade 2 at presentation for next dose [10]: 1
ECGs Grade 0 (no T-wave/ST segment abnormality) (Day after treatment): 20%
ECGs Grade 1 (T-wave abnormality) (Day after treatment): 69%
ECGs Grade 2 (ST segment depression) (Day after treatment): 11%
ECGs Grade 1 (T-wave abnormality) [11]: 69%
ECGs Grade 2 (ST segment depression) [11]: 11%
ECGs Grade 0 (no T-wave/ST segment abnormality) (Immediate post infusion): 49%
ECGs Grade 1 (T-wave abnormality) (Immediate post infusion): 48%
ECGs Grade 2 (ST segment depression) (Immediate post infusion): 3%
ECGs Grade 1 (T-wave abnormality) [12]: 48%
ECGs Grade 2 (ST segment depression) [12]: 3%
ECGs Grade 0 (no T-wave/ST segment abnormality) (Pre-treatment ECGs): 76%
ECGs Grade 1 (T-wave abnormality) (Pre-treatment ECGs): 22%
ECGs Grade 2 (ST segment depression) (Pre-treatment ECGs): 2%
ECGs Grade 1 (T-wave abnormality) [13]: 22%
ECGs Grade 2 (ST segment depression) [13]: 2%
Patients with worst ECG Grade 1 [14]: 43%
Patients with worst ECG Grade 2 [14]: 54%
ECGs Grade 0 [15]: 49%
ECGs Grade 1 [15]: 44%
ECGs Grade 2 [15]: 7%
ECGs Grade 0 [16]: 55%
ECGs Grade 1 [16]: 45%
ECGs Grade 0 [17]: 82%
ECGs Grade 1 [17]: 18%
ECGs Grade 0 [18]: 95%
ECGs Grade 1 [18]: 5%
ST segment depression, grade 2 (first dose of the first cycle, day 3): not observed
